Measured values published in patent EP2235030B1, “COMPOUND OF THE DISACCHARIDE TYPE COMPOSITION COMPRISING AND METHOD FOR PRODUCING SUCH A COMPOUND” (Université de Picardie Jules Verne, priority 2007, dated 2009).
Marks after values point to notes of the source that are not given here.

Columns and labels:
Myzus persicae (Sulzer) = experiment: Aphid neonates reared on artificial diet supplemented with DPS2: demographic parameters; type: in vivo; conditions: for Temps de doublement de la population / Fécondité journalière / Période préreproductive / rm: mean ± SD; for rm: intrinsic rate of population increase
Protocol: (§1) Deux espèces de pucerons Myzus persicae (Sulzer) et Macrosiphum euphorbiae (Thomas) ont été utilisées pour cette étude. Des adultes ont été isolés et placés dans des cages de PVC sur milieu artificiel pendant une journée afin de synchroniser la descendance. Les néonates, âgés de moins de 24 h sont alors placés sur milieu artificiel contenant des concentrations variant de 0 à 100 µg.mL^-1 du composé DPS2, synthétisé précédemment, selon un protocole décrit par Saguez J, Dubois F, Vincent C, Laberche JC, Sangwan-Norreel BS et Giordanengo P (2006), dans l'article intitulé « Differential aphicidal effects of chitinase inhibitors on the polyphagous homopteran Myzus pensicae (Sulzer) » et publié dans Pest Manag Sci 62: 1150-1154. Plusieurs paramètres démographiques sont relevés quotidiennement afin de déterminer la durée du développement larvaire, la mortalité larvaire et la fécondité et de calculer un paramètre synthétique, le rm (taux intrinsèque d'accroissement des populations) et le temps de doublement des populations. Un minimum de 50 pucerons de chaque espèce est testé par traitement et les individus sont suivis quotidiennement. La taille des pucerons a été mesurée une semaine après le début de l'expérience, sous loupe binoculaire à l'aide d'un oculaire biométrique. Les effets du DPS2 sur la survie larvaire sont analysés par un test du χ^2 de Pearson. Une analyse de variance (ANOVA monofactorielle) a été réalisée avec le logiciel Statistica 5.5 (StatSoft®, Tulsa, Oklahoma, USA) pour tester les effets du DPS2 sur les paramètres démographiques des aphides. Les paramètres significativement altérés sont ensuite analysés par un test de Fisher (PLSD) au seuil de significativité P <0,05.
(§2) Dans les tableaux I, II et III qui suivent, les résultats sont exprimés sous la forme : moyenne ± écart-type. L'effet significatif (*) été testé par une analyse de variance monofactorielle (F) à P<0.05. Les valeurs de même rang suivies par une même lettre indiquent qu'il n'existe pas de différence significative d'après le test du PLSD de Fisher (P<0.05).

[1] = system: Macrosiphum euphorbiae (Thomas); experiment: Aphid neonates reared on artificial diet supplemented with DPS2: demographic parameters and body size; type: in vivo; conditions: for rm: intrinsic rate of population increase
Protocol: as §1, §2

[2] = system: pucerons M. persicae et M. euphorbiae; experiment: Aphid artificial diet test, statements made for both aphid species without distinction; type: in vivo, Myzus persicae, Macrosiphum euphorbiae
Protocol: as §1

[3] = system: chitinases d'insectes et de champignons; conditions: competitive inhibition; cited from earlier work
[4] = DPS2 1 µg.mL^-1 in artificial diet
[5] = DPS2 10 µg.mL^-1 in artificial diet
[6] = DPS2 50 µg.mL^-1 in artificial diet
[7] = DPS2 100 µg.mL^-1 in artificial diet
[8] = DPS2 1 µg.mL^-1 in artificial diet, mean ± SD
[9] = DPS2 10 µg.mL^-1 in artificial diet, mean ± SD
[10] = DPS2 50 µg.mL^-1 in artificial diet, mean ± SD
[11] = DPS2 100 µg.mL^-1 in artificial diet, mean ± SD

Compound: CCCOC1O[C@H](COS(=O)(=O)O)[C@@H](O[C@@H]2O[C@H](CO)[C@@H](O)[C@H](O)[C@H]2NC(C)=O)[C@H](O)[C@H]1OC(C)=O (stereo partly shown) [DPS2]
- Temps de doublement de la population (Myzus persicae (Sulzer); DPS2 1 µg.mL^-1): 5,6 ± 1,8^b jours
- Fécondité journalière (Myzus persicae (Sulzer); [4]): 0,99 ± 0,27^a larves.femelles-1.jour-1
- Période préreproductive (Myzus persicae (Sulzer); [4]): 11,6 ± 1,9^b jours
- Temps de doublement de la population (Myzus persicae (Sulzer); DPS2 10 µg.mL^-1): 5,4 ± 1,2^b b jours
- Fécondité journalière (Myzus persicae (Sulzer); [5]): 0,91 ± 0,28^b larves.femelles-1.jour-1
- Période préreproductive (Myzus persicae (Sulzer); [5]): 10,9 ± 1,5^a jours
- Temps de doublement de la population (Myzus persicae (Sulzer); DPS2 50 µg.mL^-1): 5,9 ± 1,6^b b jours
- Fécondité journalière (Myzus persicae (Sulzer); [6]): 0,74 ± 0,24^bc larves.femelles-1.jour-1
- Période préreproductive (Myzus persicae (Sulzer); [6]): 11,1 ± 1,4^a jours
- Temps de doublement de la population (Myzus persicae (Sulzer); DPS2 100 µg.mL^-1): 6,5 ± 2,0^a jours
- Fécondité journalière (Myzus persicae (Sulzer); [7]): 0,65 ± 0,11^bc larves.femelles-1.jour-1
- Période préreproductive (Myzus persicae (Sulzer); [7]): 11,9 ± 1,7^b jours
- durée de la période pré-reproductive (augmentation) (Myzus persicae (Sulzer); increase versus control diet): augmentée d'environ une journée
- rm (Myzus persicae (Sulzer); DPS2 1 µg.mL^-1): 0,13 ± 0,04^b femelles.femelles^-1 .jours^-1
- rm (Myzus persicae (Sulzer); DPS2 10 µg.mL^-1): 0,13 ± 0,03^b femelles.femelles^-1 .jours^-1
- rm (Myzus persicae (Sulzer); DPS2 50 µg.mL^-1): 0,12 ± 0,03^bc femelles.femelles^-1 .jours^-1
- rm (Myzus persicae (Sulzer); DPS2 100 µg.mL^-1): 0,11 ± 0,03^c femelles.femelles^-1 .jours^-1
- taille des pucerons ([1]; DPS2 1 µg.mL-1 in artificial diet, after 7 days, mean ± SD): 2,2 ± 0,3^a mm
- Temps de doublement de la population ([1]; DPS2 1 µg.mL^-1, mean ± SD): 4,7 ± 1,0^ab jours
- Fécondité journalière [1, 8]: 1,16 ± 0,36^a larves.femelles-1 .jour-1
- Période préreproductive [1, 8]: 11,3 ± 2,1^a jours
- taille des pucerons ([1]; DPS2 10 µg.mL-1 in artificial diet, after 7 days, mean ± SD): 2,1 ± 0,3^b mm
- Temps de doublement de la population ([1]; DPS2 10 µg.mL^-1, mean ± SD): 5,5 ± 1,3^b jours
- Fécondité journalière [1, 9]: 1,06 ± 0,34^a larves.femelles-1 .jour-1
- Période préreproductive [1, 9]: 12,1 ± 1,6^a jours
- taille des pucerons ([1]; DPS2 50 µg.mL-1 in artificial diet, after 7 days, mean ± SD): 1,8 ± 0,2^bc mm
- Temps de doublement de la population ([1]; DPS2 50 µg.mL^-1, mean ± SD): 8,1 ± 1,6^c jours
- Fécondité journalière [1, 10]: 0,81 ± 0,20^b larves.femelles-1 .jour-1
- Période préreproductive [1, 10]: 13,4 ± 1,2^b jours
- taille des pucerons ([1]; DPS2 100 µg.mL-1 in artificial diet, after 7 days, mean ± SD): 1,7 ± 0,2^c mm
- Temps de doublement de la population ([1]; DPS2 100 µg.mL^-1, mean ± SD): 6,5 ± 2,0^c jours
- Fécondité journalière [1, 11]: 0,73 ± 0,22^b larves.femelles-1 .jour-1
- Période préreproductive [1, 11]: 13,5 ± 1,6^b jours
- mortality at 50 µg/mL ([1]; Macrosiphum euphorbiae, 50 µg.mL^-1, read-out: mortalité larvaire): 49%
- mortality at 100 µg/mL ([1]; Macrosiphum euphorbiae, 100 µg.mL^-1, read-out: mortalité larvaire): 53%
- taille des pucerons ([1]; from 10 µg.mL^-1 upwards): réduite
- augmentation du temps de doublement des populations ([1]; highest concentrations, 'près de'): ~4 jours
- durée de la période pré-reproductive (augmentation) ([1]; increase versus control diet, at the highest concentrations): deux jours
- rm ([1]; DPS2 1 µg.mL^-1, mean ± SD): 0,16 ± 0,04^b femelles.femelles^-1.jours^-1
- rm ([1]; DPS2 10 µg.mL^-1, mean ± SD): 0,13 ± 0,03^b femelles.femelles^-1.jours^-1
- rm ([1]; DPS2 50 µg.mL^-1, mean ± SD): 0,09 ± 0,03^c femelles.femelles^-1.jours^-1
- rm ([1]; DPS2 100 µg.mL^-1, mean ± SD): 0,08 ± 0,03^c femelles.femelles^-1.jours^-1
- processus de mue ([2]; DPS2 between 50 and 100 µg.mL^-1, many aphids die before leaving the old cuticle): affectés
- taux intrinsèque d'accroissement des populations (rm) ([2]; both aphid species, including the lowest concentration of 1 µg.mL^-1): réduite
- concentration dès laquelle les effets aphicides maximum sont obtenus ([2]; whatever parameter and aphid species, effects similar at 50 and 100 µg.mL^-1): 50 µg/mL

Compound: allosamidine
- activité inhibitrice contre les chitinases [3]: puissante activité inhibitrice
